Results on ten compounds are retold here after ChEMBL document CHEMBL3621121, “Modeling, synthesis and NMR characterization of novel chimera compounds targeting STAT3” (Medchemcomm, 2014).

Assay [1] deals with Signal transducer and activator of transcription 3 (Homo sapiens) (UniProt P40763). As to the kind of experiment: Inhibition of STAT3 in human HCT116 cells at 10 uM after 24 hrs by firefly and renilla dual luciferase assay. It counts as cell-based. The settings on record: HCT-116.
Assay [2] shares this target. As to the kind of experiment: Inhibition of STAT3 in human HCT116 cells at 50 uM after 24 hrs by firefly and renilla dual luciferase assay. The format is cell-based. The settings on record: HCT-116.
Assay [3] shares this target. In words: Inhibition of SH2 domain of STAT3 (unknown origin) using (FITC)-GpYLPQTV after 90 mins by AlphaScreen bead-based nonradioactive assay. (In general: Bead proximity is the source of the signal in Alpha formats.)

Each structure is given as a SMILES string.

Sequence of Signal transducer and activator of transcription 3 (Homo sapiens) (P40763 whole entry): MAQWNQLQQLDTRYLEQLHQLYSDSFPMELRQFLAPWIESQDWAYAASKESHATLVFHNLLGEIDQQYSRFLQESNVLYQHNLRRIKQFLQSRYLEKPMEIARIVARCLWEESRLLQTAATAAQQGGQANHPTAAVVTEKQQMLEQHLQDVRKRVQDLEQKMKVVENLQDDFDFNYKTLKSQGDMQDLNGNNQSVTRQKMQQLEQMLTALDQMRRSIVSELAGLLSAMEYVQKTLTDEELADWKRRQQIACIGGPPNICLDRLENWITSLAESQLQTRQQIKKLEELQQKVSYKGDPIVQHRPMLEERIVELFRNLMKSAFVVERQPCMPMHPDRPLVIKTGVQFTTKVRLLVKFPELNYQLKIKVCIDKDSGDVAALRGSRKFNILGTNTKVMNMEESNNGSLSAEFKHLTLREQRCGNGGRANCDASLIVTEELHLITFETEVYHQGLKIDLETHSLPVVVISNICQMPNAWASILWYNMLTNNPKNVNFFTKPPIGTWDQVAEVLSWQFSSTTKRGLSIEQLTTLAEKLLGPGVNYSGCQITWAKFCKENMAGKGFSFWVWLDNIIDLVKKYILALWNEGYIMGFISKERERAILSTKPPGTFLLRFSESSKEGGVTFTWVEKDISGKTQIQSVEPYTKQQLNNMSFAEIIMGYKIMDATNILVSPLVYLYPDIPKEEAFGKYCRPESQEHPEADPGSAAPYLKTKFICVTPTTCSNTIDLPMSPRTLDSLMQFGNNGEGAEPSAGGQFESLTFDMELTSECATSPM

The term inhibition denotes the drop in the measured response relative to a control, in per cent. As to `O=C1CC2CC(C(=O)Nc3ccc(C(F)(F)F)cc3)c3ccccc3C2=NN1` (racemic; 2), the inhibition in assay [1] is -6%; in assay [2] it was 3%.

Take `O=C1CC2CC(C(=O)Nc3ccc(C(F)(F)F)cc3)c3ccccc3C2=NN1` (single isomer, unassigned; (-)-1): the inhibition in assay [1] worked out at 9%; in assay [2] it was 14%.

As for `O=C(Nc1ccc(C(F)(F)F)cc1)C1Cc2cc(=O)[nH]nc2-c2ccccc21` (stereo in doubt; (+)-3a), the inhibition is -2% in assay [1] and 24% in assay [2].

For the compound `O=C(Nc1ccc(C(F)(F)F)cc1)C1Cc2cc(=O)[nH]nc2-c2ccccc21` (racemic), the inhibition in assay [1] turned out to be 2%; in assay [2] it was 7%.

For the compound `O=C1CC2CC(C(=O)Nc3ccc(C(F)(F)F)cc3)c3ccccc3C2=NN1` (racemic; 1), the inhibition is -3% in assay [1] and 6% in assay [2].

Regarding `O=C1CC2CC(C(=O)Nc3ccc(C(F)(F)F)cc3)c3ccccc3C2=NN1` (single isomer, unassigned; (+)-1), the inhibition in assay [1] was 9%; in assay [2], 35%; in assay [3], less than 5%.

For the compound `C[C@H]1COC2=C1C(=O)C(=O)c1c2ccc2c1CCCC2(C)C`, the inhibition in assay [1] was 78%; in assay [2], 85%.

As to `O=C1CC2CC(C(=O)Nc3ccc(C(F)(F)F)cc3)c3ccccc3C2=NN1` (single isomer, unassigned; (-)-2b), the inhibition in assay [1] stood at 1%; in assay [2], 16%.

On to `O=C(Nc1ccc(C(F)(F)F)cc1)C1Cc2cc(=O)[nH]nc2-c2ccccc21` (single isomer, unassigned; (-)), for which the inhibition in assay [1] is 2%; in assay [2], 30%.

`O=C1CC2CC(C(=O)Nc3ccc(C(F)(F)F)cc3)c3ccccc3C2=NN1` (single isomer, unassigned; (+)-2a): the values for the inhibition in assay [1] and in assay [2] were -8% and 12%, respectively.
